The record followed here is article PMC7521041 (Current Genomics, 2020).

This assay addresses T1, Alr0765 (Nostoc sp. PCC 7120 = FACHB-418, UniProt A0ACD7RPC9).
T1 sequence (A0ACD7RPC9 1-204): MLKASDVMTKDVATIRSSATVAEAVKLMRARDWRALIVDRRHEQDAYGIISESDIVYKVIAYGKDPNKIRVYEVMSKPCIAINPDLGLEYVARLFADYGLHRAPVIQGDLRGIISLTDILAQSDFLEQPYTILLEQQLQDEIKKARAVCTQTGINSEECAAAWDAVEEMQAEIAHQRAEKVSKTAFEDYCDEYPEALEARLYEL
Kind of assay: FTIR amide I conformational change. It is filed as binding. To be noted: 3 mM ligand, 1.3 mM protein, pH 8.0, 25 C.

With `Nc1ncnc2c1ncn2[C@@H]1O[C@H](COP(=O)(O)OP(=O)(O)O)[C@@H](O)[C@H]1O` [ADP], the “FTIR amide I conformational change” value was “Alr0765 binds with adenosyl ligands, which led to conformational changes”. For `Nc1ncnc2c1ncn2[C@@H]1O[C@H](COP(=O)(O)O)[C@@H](O)[C@H]1O` [AMP], the “FTIR amide I conformational change” value is “Alr0765 binds with adenosyl ligands, which led to conformational changes”. In the case of `NC(=O)C1=CN([C@@H]2O[C@H](COP(=O)(O)OP(=O)(O)OC[C@H]3O[C@@H](n4cnc5c(N)ncnc54)[C@H](O)[C@@H]3O)[C@@H](O)[C@H]2O)C=CC1` [NADH], the “FTIR amide I conformational change” value is on record as “Alr0765 binds with adenosyl ligands, which led to conformational changes”.
